Legend:
4T1 breast tumors = assay: 4T1 breast cancer cells in mammary fat pad of Balb/c mice: tumor growth, weight, lung metastasis; assay type: in vivo, mouse; conditions: for tumor weight at end of study: excised tumors; for tumor growth (tumor volume): weekly treatment, followed for 30 days, Dox i.v., CD47 M i.p. 48 hours before
Procedure: Balb/c mice were injected with 5×10^3 4 T1 breast cancer cells in the mammary fat pad. Tumors were left untreated, treated with 100 μl of 10 μg/mL doxorubicin (Dox) or with 10 μg/mL Dox in combination with 10 μM CD47 Morpholino (CD47 M). Doxorubicin treatment was given intravenously weekly. Treatment with CD47 M was given intraperitoneally 48 hours prior to doxorubicin injection.
4T1B breast cancer cells were implanted in the mammary fat-pad of Balb/C mice. The mice were treated weekly with saline, doxorubicin, CD47 M, or the combination of CD47 M with doxorubicin. Tumor growth was measured using calipers and was followed for 30 days. Treatment with CD47 morpholino was done two days prior to each treatment with doxorubicin for four weeks.
Tumors were excised at the end of the study and weighed. Tumors of mice treated with saline tripled in size (FIG. 1B).
The 4T1 breast cancer model is a well known model for metastasis of orthotopic breast tumors to lung and other organs. Mice were injected in the mammary fat pad with 4T1 cells. CD47 morpholino was administered intraperitoneally at a dose of 10 μM per mouse. Doxorubicin was adminstered intravenously at a dose of 10 mg/kg. The CD47 morpholino was administered weekly and the Doxorubicin administration was done weekly 48 hours after CD47 treatment. Five mice per group were treated. Lungs were exised, paraffin embedded, and hematoxylin and eosin stain was used to determine tissue structure.

PINK and PARKIN = PINK and PARKIN gene expression by qRT-PCR in 4T1 cells; assay type: cell-based, mouse; conditions: single agents
Procedure: Autophagy can promote either survival or death of tissue. Selective mitochondrial turnover by mitophagy in tumor tissue can shift this pathway to a pro-death response (Gargini et al., Autophagy 7:466-476, 2011). To further understand the mechanism of mitophagy in breast cancer cells, 4T1 breast cancer cells were plated and treated with CD47 morpholino for 48 hours. […] Gene expression was determined by qRT-PCR.

[1] = test system: Glut-1 glucose transporter; assay: Glut-1 expression in tumors by western blot; assay type: in vivo, mouse; conditions: western blot of excised tumors
Procedure: Glucose uptake was measured 24 hours after treatment by adding 2-NBDG, which is a fluorescently labeled deoxyglucose analog that is used primarily to directly monitor glucose uptake by living cells. This confirmed that the combination treatment modified glucose metabolism to sensitize cells to Dox treatment (FIG. 10). Furthermore, blockade of CD47 in combination with dox decreased expression of the Glut-1 glucose transporter in vivo (FIG. 11). Tumors of mice were exised and protein expression was determined by western blot hybridization. Expression of Glut-1 was not affected by treatment with saline, doxorubicin or CD47 morpholino (CD47M) alone. […] Glut-1 facilitates the transport of glucose in cells and is a poor prognostic factor in breast cancer and other cancer types.

B16 melanoma cells = assay: Oxygen consumption rate, XF24 analyzer, B16 cells; assay type: cell-based, mouse; conditions: CD47 morpholino 10 μM 48 hours, doxorubicin 10 μg/ml 1 hour
Procedure: (§1) 4T1 breast cancer cells or B16 melanoma cells (2×10^4 cells) were plated in the presence or absence of CD47 morpholino (10 μM). After a 48 hour period of incubation, cells were treated with doxorubicin for 1 hour (10 μg/ml). OCR and ECAR were measured using an XF24 analyzer (Seahorse Bioscience, N. Billerica, Mass.).
(§2) To start elucidating the molecular mechanism of breast cancer sensitization to anthracycline therapy with CD47 blockade oxygen consumption rate (OCR) was tested. OCR is a measurement of mitochondrial respiration and is extremely sensitive to changes in metabolic demand (Tao et al., Anal. Biochem. 381:43-52, 2008). Increased OCR is an indicator of mitochondrial dysfunction in transformed cells associated with tumor aggressiveness and resistance to therapy (Vaupel and Mayer, Int. J. Biochem. Cell Biol. 44:1477-1481, 2012). To measure OCR, 4T1 breast cancer cells or B16 melanoma cells were plated in 24-well plates using the XF24 flux analyzer (Seahorse Bioscience). Cells were exposed to known mitochondrial poisons (oligomicin, carbonilcyanide p-triflouromethoxy-phenylhydrazone FCCP, or […]) to determine basal and maximal OCR.

4T1 breast cancer cells [2] = assay: Oxygen consumption rate and extracellular acidification rate, XF24 analyzer, 4T1 cells; assay type: cell-based, mouse; conditions: for extracellular acidification rate (ECAR): 4T1B cells, same treatments as OCR; for oxygen consumption rate (OCR): 4T1 cells, CD47 morpholino 10 μM 48 hours, doxorubicin 10 μg/ml 1 hour
Procedure: as §1, §2
It is well known that cancer cells show increased glycolytic flux. […] The extracellular acidification rate (ECAR) was measured in 4T1B cells using the XF24 flux analyzer following the same treatments stated above.

CD47 = assay: Western blot of CD47 protein in tumors; assay type: in vivo, mouse; conditions: 48 hours after treatment
wild type Jurkat cells = test system: wild type Jurkat cells
Procedure: (§3) Wild type or CD47 null Jurkat T cells were plated at a density of 7×10^3/well in 96 well plates or 500 cells/well in 1536 well plates. Cells were treated with increasing amounts of doxorubicin. Cell viability was measured 48 or 72 hours after treatment by MTS reduction or using CellTiter-Glo® cell viability assay (Promega, Madison Wis.).
(§4) Wild type or CD47 null Jurkat cells were plated at a density of 7×10^3/well in 96 well plates. Cells were treated with 10 μg/ml 5-FU or […] camptothecin. Cell viability was measured 72 hours after treatment by MTS reduction.

CD47 null Jurkat cells = test system: CD47 null Jurkat cells
Procedure: as §3, §4

PINK = PINK immunostaining of tumor and heart sections; assay type: in vivo, mouse; conditions: heart
Procedure: Briefly, slides were deparaffinized in xylene and rehydrated in graded alcohol. Antigen retrieval was performed using microwave antigen retrieval method with Target Retrieval Solution, pH 6.1 (Dako, Carpinteria, Calif.). […] Slides were incubated with respective antibodies. Sections were treated with streptavidin-biotin and DAB (3,3-diaminobenzidine) was used as chromogen. Hematoxylin was used for counterstaining. The intensity of the staining was evaluated under light microscopy.
Tissue sections from the initial tumor model were immune-stained for PINK.

4T1 breast cancer cells [3] = assay: Cell viability by MTS reduction, 4T1 cells with or without CD47 morpholino; assay type: cell-based, mouse; conditions: 10 μM CD47 morpholino 48 hours, doxorubicin 72 hours
Procedure: Cells were plated in the presence or absence of 10 μM CD47 morpholino. After 48 hours, cells were treated with the indicated amounts of doxorubicin (10 μg/ml in FIGS. 7B and C). Cell viability was measured 72 hours after treatment by MTS reduction (FIGS. 7A and D) or 24 hours after treatment by lactate dehydrogenase (LDH) release (FIGS. 7B and C). * p<0.001. Control cells were untreated and Endoporter indicates treatment with vehicle without morpholino in FIGS. 7B and C.
4T1 breast cancer cells were treated with CD47 morpholino and treated with increasing concentrations of doxorubicin.

cardiac tissue = conditions: mouse, in vivo
Source text: Hearts were collected from mice at the end of the tumor studies after four rounds of weekly doxorubicin treatment in the presence or absence of CD47 blockade. Sections were paraffin embedded and stained with H&E to determine tissue histology.
Tissue sections were subjected to TUNEL staining to detect cell death.

lung tissue = conditions: mouse, in vivo
Atg5 and Atg7 = assay: Autophagy gene expression in hearts of WT and CD47 null mice; assay type: in vivo, mouse; conditions: 24 hours of treatment
Procedure: Samples were collected after 24 hours of treatment.
WT and CD47 null mice were treated with doxorubicin to determine effects on autophagy gene expression.

## CD47 morpholino: antisense morpholino oligonucleotide complementary to human and murine CD47, CGTCACAGGCAGGACCCACTGCCCA (SEQ ID NO: 3) (all phosphorodiamidate morpholino (PMO))
4T1 breast tumors
  tumor weight at end of study: reduction in tumor weight
  tumor growth (tumor volume): slightly delayed tumor growth
PINK and PARKIN
  PINK and PARKIN gene expression (in words): minimal effects
[1]
  Glut-1 expression in tumors: not affected
B16 melanoma cells
  oxygen consumption rate (OCR): caused a reduction in OCR
4T1 breast cancer cells [2]
  extracellular acidification rate (ECAR): slight decrease in the ECAR
  oxygen consumption rate (OCR): caused a reduction in OCR
CD47
  CD47 protein in tumors: decrease in CD47 protein

## CC[C@@]1(O)C(=O)OCc2c1cc1n(c2=O)Cc2cc3ccccc3nc2-1 [Camptothecin]
Wild type Jurkat cells; human
  cytotoxicity: 79%
CD47 null Jurkat cells; human
  cytotoxicity: 56%

## COc1cccc2c1C(=O)c1c(O)c3c(c(O)c1C2=O)C[C@@](O)(C(=O)CO)C[C@@H]3O[C@H]1C[C@H](N)[C@H](O)[C@H](C)O1 [Doxorubicin]
PINK
  PINK expression in hearts: No change in PINK expression
4T1 breast tumors
  tumor weight at end of study: reduction in tumor weight
  tumor growth (tumor volume): slightly delayed tumor growth
PINK and PARKIN
  PINK and PARKIN gene expression (in words): minimal effects
4T1 breast cancer cells [3]
  cell viability: reduction in cell viability
[1]
  Glut-1 expression in tumors: not affected
Cardiac tissue
  cardiac tissue histology (H&E): characteristic degeneration of cardiac muscle
  cell death in cardiac tissue (TUNEL staining): high TUNEL positive staining
Lung tissue
  lung tissue condition / fibrosis: less fibrosis
B16 melanoma cells
  oxygen consumption rate (OCR): showed the same pattern
4T1 breast cancer cells [2]
  extracellular acidification rate (ECAR): high acidification in the media
  oxygen consumption rate (OCR): showed the same pattern
Wild type Jurkat cells; WT Jurkat T cells, increasing concentration of doxorubicin, 72 hours
  cell viability: decreased viability
CD47 null Jurkat cells; CD47 deficient Jurkat T cells, increasing concentration of doxorubicin, 72 hours
  cell viability: dose-dependent protection
Atg5 and Atg7; CD47 null mice
  Atg5 and Atg7 mRNA levels in hearts: markedly increased
Atg5 and Atg7; WT mice
  Atg5 mRNA level in hearts: slight reduction of Atg5

Source: US11285169B2, “Methods for modulating chemotherapeutic cytotoxicity” (The United States of America, as represented by the …, priority 2013, dated 2022)
